The values below come from patent US20240182406A1, “COMPOUNDS AS SOLUBLE EPOXIDE HYDROLASE INHIBITORS” (UNIVERSITAT DE BARCELONA, priority 2021, published 2024).

Series [1] has as its system human primary astrocytes. The series is described as follows: T/I/C-induced reactive astrocyte conversion, qPCR and Western blotting. The class given is cell-based. The protocol: To validate the inhibition efficacy of sEH, 10^6 astrocytes isolated from CD1 mouse brain (Sciencell #M1800) or primary human astrocyte (Sciencell #1800) were seeded onto 6 well culture plates in astrocyte medium (Sciencell #1831 or #1801).
Total RNAs were isolated from microglia or astrocyte using a Quick-RNA kit (Zymo Research, Inc., Irvine, CA, USA). The concentration of total RNAs was measured using a UV-Vis spectrophotometer (NanoDrop8000, Thermo Fisher Scientific Inc., Wilmington, DE, USA) and reverse-transcribed with a high-capacity cDNA reverse transcription kit (Applied Biosystems, Carlsbad, CA, USA). Gene expression was quantified by Fast SYBR green real-time PCR on a Quantstudio 5 system (Applied Biosystems). The primer sequences are listed below (Table 8). Data were analyzed according to the comparative Ct method. Glyceraldehyde 3-phosphate dehydrogenase (Gapdh) was used to normalize the amounts of cDNA within each sample.
Proteins were extracted from microglia or astrocyte by RIPA buffer (Thermo Fisher Scientific Inc.). Extracted proteins were separated by SDS/PAGE and subsequently transferred to nitrocellulose membranes (Bio-Rad, Hercules, CA, USA). […] Membranes visualized on Odyssey (LI-COR Biosciences, NE, USA).
On the technique in general: In qPCR the cycle at which signal appears reflects the starting amount.

The test system of series [2] is C57BL/6 mice. Nature of the series: Cerulein-induced acute pancreatitis murine model. The class given is in vivo, mouse. From the text:
Acute pancreatitis (AP) is a potentially life-threatening gastrointestinal disease, and its incidence has been increasing over the last few decades. The onset of the disease is thought to be triggered by intra-acinar cell activation of digestive enzymes that results in interstitial edema, inflammation and acinar cell death that often leads to a systemic inflammation response. […] The experimental procedure for the in vivo efficacy study followed already published protocols (Mol Pharmacol. 2015 August; 88(2):281-90)
In vivo efficacy study. Forty-one male C57BL/6 mice (eight week-old; approximately 24 g) were supplied by Envigo (Barcelona, Spain) (Ref. 16512). During the experimental procedure, animals were identified with permanent marker (tail code numbers). […] Animals were kept in an environmentally controlled room (ventilation, temperature 22±2° C. and humidity 35-65%) on a 12-h light/dark cycle. A period of 7 days of acclimatization underwent between the date of arrival and the start of the procedure. […] The maintenance diet was supplied by Harlan Interfauna Ibérica S. L. (2018 Harlan Teklad Global Diets). Diet will be provided to the animals ad libitum, but they were fasted overnight before first cerulein injection, and food was replaced after last cerulein injection. Tap water was supplied by CASSA (Servei d'Aigües de Sabadell) ad libitum. The animals were maintained in accordance with European Directive for the Protection of Vertebrate Animals Used for Experimental and other Scientific Purposes (86/609/EU). Decree 214/1997 of 30th July. Ministry of agriculture, livestock and fishing of the Autonomous Government of Catalonia, Spain. Royal Decree 53/2013 of 1st February (Spain). All the experimental procedures were approved by the Ethical Committee on human and animal experimentation (CEEAH) of Universitat Autònoma de Barcelona (UAB) (procedure number: 4107) and by the Animal Experimentation Commission of the Generalitat de Catalunya (Catalan Government) (DAAM: 10146). […]

Series [3] in a line: In vitro determination of microsomal stability. The class given is in vitro ADME. The conditions noted are these: human microsomes, 37° C., samples at 0-60 min. The protocol: The human recombinant microsomes employed were purchased from Tebu-Xenotech. […] Samples (75 μL) were taken from each well at 0, 10, 20, 40 and 60 min and transferred to a plate containing 4° C. 75 μL acetonitrile and 30 μL of 0.5% formic acid in water were added for improving the chromatographic conditions. The plate was centrifuged (46000 g, 30 min) and supernatants were taken and analyzed in a UPLC-MS/MS (Xevo-TQD, Waters) by employing a BEH C18 column and an isocratic gradient of 0.1% formic acid in water:0.1% formic acid acetonitrile (60:40). The metabolic stability of the compounds was calculated from the logarithm of the remaining compounds at each of the time points studied.

In the case of `O=C(NC12CC3CC(Cl)(CC(C1)c1ccccc13)C2)N[C@H]1CC[C@H](Oc2ccc(C(=O)O)cc2)CC1` [Example 2, 4-[((1r,4r)-4-(3-(9-chloro-5,6,8,9,10,11-hexahydro-7H-5,9:7,11-dimethanobenzo[9]annulen-7-yl)ureido)cyclohexyl)oxy]benzoic acid], in series [1] (T/I/C 24 h, qPCR), the “induction of inflammatory mediators Nos and Cox2 mRNA” value is on record as “prevented the induction”; the “mRNA levels of reactive astrocyte markers Cxcl10 and C3” value was “significantly reduced”. In addition, the “protein levels of C3 and phosphor-p38” value in series [1] (T/I/C-induced reactive astrocyte, 30 μM (FIG. 5f)) is listed as “decreased”. Further, the “histologic analysis of pancreas (H&E), severity of cerulein-induced pancreatitis” value in series [2] (both doses 0.1 and 0.3 mg/kg IP) is given as “ameliorated cerulein-induced effects”. Further, the “body weight change at end of study” value in series [2] (cerulein 50 μg/kg IP x12, single dose 0.3 or 0.1 mg/kg IP, only 0.3 mg/kg significant (p<0.01 vs Cerulein)) is “increased body weight”. Further, the “histologic analysis of pancreas (H&E), pancreatic damage, edema, neutrophils infiltration” value in series [2] (higher dose 0.3 mg/kg IP) is “more efficiently reversed the pancreatic damage, edema and neutrophils infiltration”. Further, in series [3], the “Microsomal stability (% remanent)” value amounted to 89%.
